Assays:
[1] = tested on: JIMT1 cells (trastuzumb-resistant human breast cancer); assay: Cell viability of JIMT1 cells after transfection (Celltiter Glo, ATP); format: cell-based; details: three doses, 24, 48, 72 hours, RNAiMax lipofectamine carrier (doxorubicin alone without lipofectamine)
Experimental: (§1) To measure the effect of the complexes on cell viability, the formed complexes were transfected into JIMT1 cells (trastuzumb-resistant human breast cancer). Approximately 10,000 cells per well were plated in 96-well plates, maintained in RPMI 1640 medium with 100% fetal bovine serum, 100 U/mL penicillin, 100 μg/mL streptomycin at 37° C. under 5% CO2. After 24 hours, the culture media was replaced with Opti-MEM I reduced serum medium (Invitrogen Life Technologies). RNAiMax lipofectamine (Invitrogen Life Technologies) was used as a carrier for siRNA, Dox:siRNA complexes, and the Dox:DNA oligo complex delivery. Doxorubicin was administered to the control sample without the lipofectamine. Three hours following transfection, the medium in each sample was replaced with complete culture media. After 24, 48, or 72 hours, relative cell viability was determined by quantifying ATP using Celltiter Glo Luminescent Cell Viability Kit (Promega), according to the manufacturer's instructions. Experiments were conducted in triplicate. Results are shown in FIG. 5A (24 hours), 5B (48 hours), and SC (72 hours).

[2] = tested on: 4T1-Fluc-Neo/eGFP-Puro cells (mouse mammary carcinoma cells); assay: Cell viability of 4T1-Fluc-Neo/eGFP-Puro cells after transfection (Celltiter Glo, ATP); format: cell-based; details: three doses, 24 hours, RNAiMax lipofectamine carrier (doxorubicin alone without lipofectamine)
Experimental: as §1, with “4T1-Fluc-Neo/eGFP-Puro” for “JIMT1”, “(mouse mammary carcinoma cells stably expressing FLuc and eGFP).” for “(trastuzumb-resistant human breast cancer).”, “[…],” for “100%”, “siScrm2, dox:siScrm2, siRNA3, or dox:siRNA3” for “siRNA, Dox:siRNA complexes, and the Dox:DNA oligo complex”, “24” for “24, 48, or 72”, “triplicate.” for “triplicate. Results are shown in FIG. 5A (24 hours), 5B (48 hours), and SC (72 hours).”

COc1cccc2c1C(=O)c1c(O)c3c(c(O)c1C2=O)C[C@@](O)(C(=O)CO)C[C@@H]3O[C@H]1C[C@H](N)[C@H](O)[C@H](C)O1 [doxorubicin]
relative cell viability [1]: dose-dependent decrease in cell viability | relative cell viability [2]: dose-dependent decrease in cell viability

Source: patent US20190240344A1, “FUNCTIONAL RNA AND SMALL-MOLECULE DRUG THERAPEUTIC COMPLEXES AND NANOPARTICLE DELIVERY VEHICLES” (EOS BIOSCIENCES, INC., priority 2016, published 2019)
